Results on nine molecules are retold here after ChEMBL document CHEMBL1201862, “PubChem BioAssay data set” (2004).

The source made the active and inactive calls. Cut-off read from the data, not from the text of the source, for most assays here: actives have a measured EC50 and inactives only a lower limit.

System in one assay: not listed separately
The experiment in a line: Luminescence Cell-Based Dose Response HTS to Identify Activators of Luciferase Translation or Activity in H4 […] Cells. [Related pubchem assays: 1829 (Project Summary), 1814 (Primary HTS)]. It is filed as functional.
Conditions: not given
Broadly, the EC50 is the concentration that produces a half-maximal response. On to `COc1cccc(C2c3c(oc4ccccc4c3=O)C(=O)N2Cc2ccco2)c1` (stereo not given), for which the half-maximal effective concentration (EC50) is 55.4 µM (active).

For `C=CCn1cccc(C(=O)Nc2ccc(SC)cc2)c1=O`, the half-maximal effective concentration (EC50) was 0.188 µM (active).

Consider `Cc1nc(C(=O)Nc2ccccc2)sc1C1(C)CC(c2cccnc2)=NO1` (stereo not given), for which the EC50 was 30.4 µM (active).

Turning to `Nc1nn(-c2ccccc2)nc1C(=O)OCc1ccccc1`, the EC50 was 13.7 µM (active).

Regarding `c1ccc2c(-c3nc(-c4ccncc4)no3)cccc2c1`, the EC50 is on record as > 120 µM (not active).

On to `CC(C)c1ccc(NC(S)=NN2CCOCC2)cc1`, for which the EC50 was 17.4 µM (active).

Take `COc1ccccc1N=C(S)NNC(=O)c1ccc(Cl)cc1Cl`: the EC50 is 31.8 µM (active).

`N#Cc1ccc(-c2ccc(Cl)cc2)nc1SCC(=O)c1cccc(Cl)c1`: the EC50 was > 120 µM (not active).

As for `Cc1ccccc1OCc1nc(-c2ccc(NC(=O)c3cccs3)cc2)no1`, the EC50 was 28.5 µM (active).

System in a further assay: not listed separately
Nature of the assay: Luminescence Cell-Based Dose Confirmation HTS to Identify Activators of 5'UTR Stem-Loop Driven Alpha-Synuclein mRNA Translation in H4 Neuroglioblastoma Cells. [Related pubchem assays: 1829 (Project Summary), 1814 (Primary HTS)]. The class given is functional.
Conditions: not given
With `COc1cccc(C2c3c(oc4ccccc4c3=O)C(=O)N2Cc2ccco2)c1` (stereo not given), the concentration giving a half-maximal response (EC50) was 1.7 µM (active).

In the case of `C=CCn1cccc(C(=O)Nc2ccc(SC)cc2)c1=O`, the EC50 is 0.229 µM (active).

In the case of `Cc1nc(C(=O)Nc2ccccc2)sc1C1(C)CC(c2cccnc2)=NO1` (stereo not given), the half-maximal effective concentration (EC50) is 10.1 µM (active).

Consider `Nc1nn(-c2ccccc2)nc1C(=O)OCc1ccccc1`, for which the EC50 is listed as > 120 µM (not active).

For the molecule `c1ccc2c(-c3nc(-c4ccncc4)no3)cccc2c1`, the concentration for a half-maximal effect (EC50) was 0.841 µM (active).

For the molecule `CC(C)c1ccc(NC(S)=NN2CCOCC2)cc1`, the EC50 is 18.4 µM (active).

In the case of `COc1ccccc1N=C(S)NNC(=O)c1ccc(Cl)cc1Cl`, the EC50 is 10.9 µM (active).

Turning to `N#Cc1ccc(-c2ccc(Cl)cc2)nc1SCC(=O)c1cccc(Cl)c1`, the EC50 is > 120 µM (not active).

For the molecule `Cc1ccccc1OCc1nc(-c2ccc(NC(=O)c3cccs3)cc2)no1`, the EC50 is 23.8 µM (active).

For the next assay, the system named is INS1. The experiment in a line: beta cell apoptosis inhibitors, cytokine rescue, dose response, luminescence, retest (AID 449756).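 Note: cell death triggered by IL-1 beta plus TNF-alpha plus IFN-gamma mixture; protective hits raise ATP signal compared with cytokine alone wells.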 The class given is functional, cell-based. Conditions: Rattus norvegicus.
What is called AC50 is the midpoint of the concentration-response curve, whichever way the signal moves. Consider `N#Cc1ccc(-c2ccc(Cl)cc2)nc1SCC(=O)c1cccc(Cl)c1`, for which the concentration at half-maximal activity (AC50) was 3.9 µM (active).

A further assay concerns the target T1, RNA-binding protein pos-1 (Caenorhabditis elegans, UniProt G5EF15).
T1 sequence (G5EF15 whole entry): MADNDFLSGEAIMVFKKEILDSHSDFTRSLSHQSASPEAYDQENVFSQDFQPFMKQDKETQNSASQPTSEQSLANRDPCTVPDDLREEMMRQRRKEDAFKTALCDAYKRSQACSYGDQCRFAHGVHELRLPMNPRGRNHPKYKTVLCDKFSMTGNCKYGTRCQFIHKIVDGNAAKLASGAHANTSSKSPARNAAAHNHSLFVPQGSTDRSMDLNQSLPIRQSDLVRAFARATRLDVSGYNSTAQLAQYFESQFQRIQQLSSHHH
The experiment in a line: inhibitors of POS-1/mex-3 RNA binding, dose response, biochemical, fluorescence polarization (AID 1964).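 Note: purified POS-1 fused to maltose binding protein made in E. coli; potency of compounds blocking POS-1 binding to fluorescent RNA.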
Conditions: not given
(In general: In fluorescence polarisation assays a small probe gives low polarisation when free and higher when bound to something large.)
On to `COc1cccc(C2c3c(oc4ccccc4c3=O)C(=O)N2Cc2ccco2)c1` (stereo not given), for which the EC50 was 36.3 µM (active).

The next assay addresses T2, Zinc finger protein mex-5 (Caenorhabditis elegans, UniProt Q9XUB2).
T2 sequence (Q9XUB2 whole entry): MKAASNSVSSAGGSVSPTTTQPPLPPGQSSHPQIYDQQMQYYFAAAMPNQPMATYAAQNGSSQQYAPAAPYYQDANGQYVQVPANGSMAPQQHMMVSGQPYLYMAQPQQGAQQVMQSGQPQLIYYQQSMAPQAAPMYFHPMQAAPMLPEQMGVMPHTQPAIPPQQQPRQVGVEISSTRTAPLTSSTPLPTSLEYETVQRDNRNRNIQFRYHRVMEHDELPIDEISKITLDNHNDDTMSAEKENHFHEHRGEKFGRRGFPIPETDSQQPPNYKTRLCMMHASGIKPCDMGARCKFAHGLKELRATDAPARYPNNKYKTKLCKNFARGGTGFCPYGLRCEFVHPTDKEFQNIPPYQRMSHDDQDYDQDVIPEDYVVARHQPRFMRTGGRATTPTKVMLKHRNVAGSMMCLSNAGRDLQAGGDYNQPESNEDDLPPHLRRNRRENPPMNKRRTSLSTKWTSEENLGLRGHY
The experiment in a line: MEX-5/TCR-2 RNA interaction inhibitors, dose response, biochemical, C. elegans, fluorescence polarization (AID 1960).
Conditions: not given
On to `COc1cccc(C2c3c(oc4ccccc4c3=O)C(=O)N2Cc2ccco2)c1` (stereo not given), for which the concentration giving a half-maximal response (EC50) is 150 µM (active).

In a further assay the test system is H4. The experiment in a line: Luminescence Cell-Based Dose Response HTS to Identify Activators of 5'UTR Stem-Loop Driven Prion Protein mRNA Translation in H4 Neuroglioblastoma Cells. [Related pubchem assays: 1829 (Project Summary), 1814 (Primary HTS)]. The class given is functional. Conditions: Homo sapiens.
Consider `COc1cccc(C2c3c(oc4ccccc4c3=O)C(=O)N2Cc2ccco2)c1` (stereo not given), for which the half-maximal effective concentration (EC50) is 68 µM (active).

With `C=CCn1cccc(C(=O)Nc2ccc(SC)cc2)c1=O`, the EC50 was 9.44 µM (active).

Regarding `Cc1nc(C(=O)Nc2ccccc2)sc1C1(C)CC(c2cccnc2)=NO1` (stereo not given), the concentration giving a half-maximal response (EC50) is 11.9 µM (active).

For the molecule `Nc1nn(-c2ccccc2)nc1C(=O)OCc1ccccc1`, the half-maximal effective concentration (EC50) was 25.2 µM (active).

As for `c1ccc2c(-c3nc(-c4ccncc4)no3)cccc2c1`, the 50% effective concentration (EC50) was 51.4 µM (active).

As to `CC(C)c1ccc(NC(S)=NN2CCOCC2)cc1`, the EC50 was 22.2 µM (active).

Turning to `COc1ccccc1N=C(S)NNC(=O)c1ccc(Cl)cc1Cl`, the EC50 was 61.7 µM (active).

For `N#Cc1ccc(-c2ccc(Cl)cc2)nc1SCC(=O)c1cccc(Cl)c1`, the concentration giving a half-maximal response (EC50) is > 120 µM (not active).

Turning to `Cc1ccccc1OCc1nc(-c2ccc(NC(=O)c3cccs3)cc2)no1`, the EC50 was 1.46 µM (active).
